Tested on: S. bombicola Δcyp52M1Δfao1 strain
Experiment: Shake flask cultivation fed with different primary fatty alcohols: follow-up of growth (CFU) and glucose consumption
Type: cell-based, Starmerella bombicola
Details: for glucose consumption rate: alcohol fed at 1.8 (w/v) % after 48 h of cultivation, shake flask
Protocol: Production experiments using S. bombicola were performed using the production medium described by Lang et al. (2000). For shake flask experiments, 5 ml tube cultures were set up 24 h (30° C.), before transferring to shake flasks (4% inoculation). Production experiments were executed with feeding of fatty alcohols: oleyl alcohol, stearyl alcohol, lauryl alcohol, myristyl alcohol or cetyl alcohol which were added after 48 h of cultivation. The Δcyp52M1Δfao1 strain was also assessed without addition of the hydrophobic alcohol. For every production experiment, cultivation was stopped when glucose was depleted from the medium. Experiments were performed in duplicate, and average values with standard deviations are presented.
Optical density (OD) of cultures was measured at 600 nm using the Jasco V 630 Bio spectrophotometer (Jasco Europe) of 1 mL samples diluted with physiological solution (9 g/L NaCl). The viability of yeast cells in cultivation experiments was assessed by determining colony forming units (CFUs) which were expressed as the average logarithm of CFUs per culture volume as log (CFU/mL) (Saerens et al., 2011). Alternatively, Cell Dry Weight (CDW) was determined by centrifuging 1 mL fermentation samples at 14000 rpm for 5 min in tared Eppendorf tubes, and subsequently washing the cell pellets twice with 1 mL physiological solution. The remaining cell pellet was put into a 70° C. oven for 5 days and then weighed afterwards. The CDW (g/L) was calculated after subtraction of the empty weight of the Eppendorf tube.
Glucose concentrations were determined using the 2700 Select Biochemistry Analyser (YSI Inc.) or using Ultra Performance Liquid Chromatography (Waters Acquity H-Class UPLC), coupled with an Evaporative Light Scattering Detector (Waters Acquity ELSD Detector) (UPLC-ELSD). For the UPLC analysis, an Acquity UPLC BEH Amide column (130 Å, 1.7 μm, 2.1×100 mm) (Waters) was used at 35° C. and an isocratic flow rate of 0.5 mL/min of 75% acetonitrile and 0.2% triethylamine (TEA) was applied (5 min/sample). For the ELS detection, the nebulizer was cooled to 15° C. and the drift tube was kept at a temperature of 50° C. […] To express glucose consumption, a linear curve was fitted through the obtained glucose concentrations by UPLC-ELSD, and the respective slope was taken and denoted as the glucose consumption rate (g/L·h).
When two different groups were compared, the Welch's test was performed with a 95% confidence level using GraphPad Prism 7.04 software. For multiple group comparisons, analysis of variance (ANOVA) with Bonferroni's multiple comparison test correction with a 95% confidence level using GraphPad Prism 7.04 software was employed. For parameters pH, CFU, OD and glucose consumption, average values were taken when the yeast cells attained their stationary phase (after 48 h of cultivation). In general, data represented in graphs are the average and standard deviation of two experimental replicates (unless stated otherwise).
Unexpectedly, no successful uniform production of either bola SSs or alkyl SSs was obtained for the Δcyp52M1Δfao1 strain when feeding with oleyl alcohol. Instead, mixtures of both were found, although the majority of the novel glycolipids were (acetylated) bola SSs and only minor amounts of alkyl SS were produced. The production of tetra-acetylated bola SS was unexpected, since the CYP52M1 enzyme was thought to be the only enzyme involved in glycolipid production thus far in S. bombicola. To assess the influence on the chain lengths of primary alcohols to the glycolipid production, different substrates were fed to the Δcyp52M1Δfao1 strain. The parental strain Δcyp52M1 was assessed in parallel. Medium and long-chain alcohols were selected between a chain length of 12 and 18, similarly as reported by Davila et al. (1994) for alkanes. Similarly as for the experiments described above, the hydrophobic substrate was added after 48 h of cultivation.

SMILES	glucose consumption rate	glucose consumption after addition of the alcohol (addition 48 h after inoculation)	CFUs (log (CFU/mL)) (after addition of the alcohol, 1.8 (w/v) % added after 48 h of cultivation, in contrast to all other fed substrates (FIG. 8A))	glucose consumption rate after it initiated again (only Δcyp52M1Δfao1 strain, 100 h after substrate addition, until all glucose was depleted)
CCCCCCCCCCCCCCCCCCO [stearyl alcohol]	0.38 g/L·h			
CCCCCCCCCCCCCCCCO [cetyl alcohol]	0.38 g/L·h			
CCCCCCCC/C=C\CCCCCCCCO [oleyl alcohol]	0.48 g/L·h			
CCCCCCCCCCCCCCO [myristyl alcohol]	0.48 g/L·h			
CCCCCCCCCCCCO [lauryl alcohol]		stopped	significant drop	0.33 g/L·h

From US12110527B2, “Production of symmetrical bolaform sophorosides” (priority 2018, dated 2024)
